Source: paper PMC3095316, “Differential expression pattern of an acidic 9/13-lipoxygenase in flower opening and senescence and in leaf response to phloem feeders in the tea plant” (BMC Plant Biology, 2010)
Where two headings read alike, the source gives them in different places.

Target: T1, CsLOX1 (9/13-CsLOX1) (Camellia sinensis, UniProt A8W7J7)
T1 construct: gene lox1
T1 sequence (A8W7J7 1-861): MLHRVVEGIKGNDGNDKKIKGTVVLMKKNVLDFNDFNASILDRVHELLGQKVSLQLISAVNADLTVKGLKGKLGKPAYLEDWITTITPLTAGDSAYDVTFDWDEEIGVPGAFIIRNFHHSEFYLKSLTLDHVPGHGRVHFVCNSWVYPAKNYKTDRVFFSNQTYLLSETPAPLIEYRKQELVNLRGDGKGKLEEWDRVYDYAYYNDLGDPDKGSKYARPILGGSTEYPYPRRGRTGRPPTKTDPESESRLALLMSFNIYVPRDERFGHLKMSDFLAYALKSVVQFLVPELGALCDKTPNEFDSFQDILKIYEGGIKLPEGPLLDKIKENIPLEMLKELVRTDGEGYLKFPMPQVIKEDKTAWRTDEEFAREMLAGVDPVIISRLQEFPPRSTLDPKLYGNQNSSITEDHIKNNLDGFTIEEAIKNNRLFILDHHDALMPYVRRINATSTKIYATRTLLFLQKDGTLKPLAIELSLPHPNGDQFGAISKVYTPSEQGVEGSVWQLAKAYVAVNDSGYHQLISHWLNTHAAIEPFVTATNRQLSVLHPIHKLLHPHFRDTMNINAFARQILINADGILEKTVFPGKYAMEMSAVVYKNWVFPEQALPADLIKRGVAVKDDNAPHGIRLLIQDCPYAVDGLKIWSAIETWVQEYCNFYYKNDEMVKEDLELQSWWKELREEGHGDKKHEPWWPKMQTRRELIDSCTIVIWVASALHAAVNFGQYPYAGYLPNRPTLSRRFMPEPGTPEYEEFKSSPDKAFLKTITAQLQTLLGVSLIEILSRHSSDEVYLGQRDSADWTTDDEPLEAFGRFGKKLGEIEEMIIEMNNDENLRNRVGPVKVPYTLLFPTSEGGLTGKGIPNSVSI
Settings: co-substrate O2, substrate 75-600 μM, pH and temperature of the kinetics not stated (optimum pH 3.6, 25°C)

Row | Km [µM] | Km (linolenic acid isomer not printed (alpha taken from jasmonate context)) [µM] | Compound
1 | 141 |  | CCCCC/C=C\C/C=C\CCCCCCCC(=O)O [linoleic acid]
2 |  | 32.9 | CC/C=C\C/C=C\C/C=C\CCCCCCCC(=O)O [linolenic acid]
